# According to patent publication US6643591B1, “Use of computational and experimental data to model organic compound reactivity in cytochrome P450 mediated reactions and to optimize the design of pharmaceuticals” (University of Pittsburgh, priority 1998, dated 2003):
# Legend:
# [1] = tested on: CYP; experiment: Experimental product ratios for aromatic oxidation; settings: Arom/benz
# Text: These equations may be solved with the data in Table 4, which provides experimental data for aromatic oxidation reactions with a number of substrates.
# Experimental metabolite ratios may also be used to parameterize the aromatic oxidation reaction in a theoretical model for CYP reactions. As with hydrogen atom abstraction discussed in the previous Examples, experimental ratios of aromatic oxidation to an alternate position may be determined using various CYP enzymes. These substrates were chosen based on their small size, the presence of an alternate position for metabolism, and their hydrophobicity.
# In order for the substrates to be useful, the average of the rotation rates in the active sites should be rapid. […] Several human expressed CYP enzymes were used in these studies, including CYP1A1, 1A2, 2A6, 2B6, 2C8, 2C9, 2D6, 2E1, 3A4, and 3A5. The use of multiple enzymes insures that a reasonable average of any orientation preferences within the active site (see FIG. 1).
# [2] = biological target: T1, CYP2C9 (Homo sapiens, UniProt P11712); experiment: in vitro
# T1 sequence (P11712 whole entry): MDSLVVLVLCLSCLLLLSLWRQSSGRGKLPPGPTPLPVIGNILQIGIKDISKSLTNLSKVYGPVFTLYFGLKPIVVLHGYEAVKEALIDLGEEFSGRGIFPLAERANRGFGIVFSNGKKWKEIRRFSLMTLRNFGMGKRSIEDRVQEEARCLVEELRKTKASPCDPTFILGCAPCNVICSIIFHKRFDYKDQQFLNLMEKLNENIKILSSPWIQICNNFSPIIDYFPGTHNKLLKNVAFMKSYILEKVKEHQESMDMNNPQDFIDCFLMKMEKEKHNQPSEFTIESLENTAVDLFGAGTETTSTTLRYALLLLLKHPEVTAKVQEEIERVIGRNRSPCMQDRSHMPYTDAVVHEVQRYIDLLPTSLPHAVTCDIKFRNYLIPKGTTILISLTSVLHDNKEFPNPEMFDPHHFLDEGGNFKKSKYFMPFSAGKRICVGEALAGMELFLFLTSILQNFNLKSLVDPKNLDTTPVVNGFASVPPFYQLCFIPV
# [3] = biological target: T2, CYP1A2 (Homo sapiens, UniProt P05177); experiment: in vitro
# T2 sequence (P05177 1-516): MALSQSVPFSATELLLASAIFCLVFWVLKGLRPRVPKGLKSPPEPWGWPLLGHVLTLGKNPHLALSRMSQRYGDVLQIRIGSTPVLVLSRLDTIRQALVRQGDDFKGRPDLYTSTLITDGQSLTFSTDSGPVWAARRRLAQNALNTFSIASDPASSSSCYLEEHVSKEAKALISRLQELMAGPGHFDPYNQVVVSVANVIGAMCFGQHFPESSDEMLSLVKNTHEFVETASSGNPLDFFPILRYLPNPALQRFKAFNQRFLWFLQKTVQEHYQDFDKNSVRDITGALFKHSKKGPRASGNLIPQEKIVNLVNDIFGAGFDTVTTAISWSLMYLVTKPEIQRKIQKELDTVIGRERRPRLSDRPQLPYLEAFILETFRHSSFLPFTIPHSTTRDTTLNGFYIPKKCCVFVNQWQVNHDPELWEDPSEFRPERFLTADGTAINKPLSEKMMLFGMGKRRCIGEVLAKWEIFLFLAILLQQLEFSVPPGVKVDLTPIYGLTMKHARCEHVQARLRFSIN
# [4] = biological target: T1, CYP2C9; experiment: Regioselectivity and inter-/intramolecular KIE for 4-methylanisole (Table 15); type: in vitro ADME
# [5] = biological target: T3, P450cam (Pseudomonas putida, UniProt P00183); experiment: Intramolecular isotope effects with purified P450cam; type: in vitro ADME, bacterial; settings: benzylic hydroxylation, -CH2D (d1) substrate
# T3 construct: made in house
# T3 sequence (P00183 2-415): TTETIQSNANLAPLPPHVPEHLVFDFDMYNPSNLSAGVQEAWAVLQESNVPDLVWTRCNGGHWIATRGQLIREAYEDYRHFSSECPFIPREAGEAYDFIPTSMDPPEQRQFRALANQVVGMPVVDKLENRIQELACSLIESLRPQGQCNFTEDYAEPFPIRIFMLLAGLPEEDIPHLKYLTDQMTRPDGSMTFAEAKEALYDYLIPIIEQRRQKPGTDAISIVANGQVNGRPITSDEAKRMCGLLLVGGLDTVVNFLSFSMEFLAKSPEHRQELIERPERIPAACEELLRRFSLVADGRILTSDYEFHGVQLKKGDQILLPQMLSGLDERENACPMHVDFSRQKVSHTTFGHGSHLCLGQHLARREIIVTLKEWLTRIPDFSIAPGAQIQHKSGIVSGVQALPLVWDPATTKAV
# Description: For the intramolecular isotope effect experiments herein, a substrate is chosen that contains at least two symmetrical sites, with at least one site, but not all, isotopically labeled. A single concentration of substrate is incubated with enzyme, and the ratio of labeled to unlabeled compound in the isotopic mixture of products (or the corresponding rates of formation of products) are used to calculate a KIE.
# Construction of expression plasmids for P450cam, Pd, and PdR as well as protein expression and purification have been described previously (Shimoji et al. (1998) Biochemistry 37, 8848-52).
# Enzyme incubations with monodeuterated toluenes and p-xylene-α-^2H1-α′-^2H1 were performed in triplicate at a single substrate concentration of 0.25 mM. […] The kinetic parameters for metabolism of the substituted toluenes were determined by GC-MS analysis of the M-(dimethylsilyl) derivative of the product benzyl alcohols (see below).
# [6] = biological target: T4, CYP1A1 (Homo sapiens, UniProt P04798)
# T4 sequence (P04798 1-512): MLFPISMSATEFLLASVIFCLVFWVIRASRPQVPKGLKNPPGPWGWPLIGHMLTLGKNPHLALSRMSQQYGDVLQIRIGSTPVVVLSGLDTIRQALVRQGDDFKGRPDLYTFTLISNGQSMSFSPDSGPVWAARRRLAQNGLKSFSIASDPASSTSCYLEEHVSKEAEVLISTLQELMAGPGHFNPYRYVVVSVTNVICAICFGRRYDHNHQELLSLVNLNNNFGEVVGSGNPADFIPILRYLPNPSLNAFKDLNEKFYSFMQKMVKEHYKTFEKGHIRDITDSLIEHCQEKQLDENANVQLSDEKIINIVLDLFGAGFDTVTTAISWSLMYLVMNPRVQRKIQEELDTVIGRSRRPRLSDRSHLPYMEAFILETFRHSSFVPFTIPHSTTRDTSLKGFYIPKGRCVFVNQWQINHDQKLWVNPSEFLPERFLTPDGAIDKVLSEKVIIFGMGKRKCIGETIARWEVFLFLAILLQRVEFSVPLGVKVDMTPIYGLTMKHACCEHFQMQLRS
# [7] = biological target: T2, CYP1A2; experiment: Regioselectivity and inter-/intramolecular KIE for 4-methylanisole (Table 15); type: in vitro ADME
# [8] = biological target: T5, CYP2B6 (Homo sapiens, UniProt P20813); experiment: as above; type: in vitro ADME
# T5 sequence (P20813 1-491): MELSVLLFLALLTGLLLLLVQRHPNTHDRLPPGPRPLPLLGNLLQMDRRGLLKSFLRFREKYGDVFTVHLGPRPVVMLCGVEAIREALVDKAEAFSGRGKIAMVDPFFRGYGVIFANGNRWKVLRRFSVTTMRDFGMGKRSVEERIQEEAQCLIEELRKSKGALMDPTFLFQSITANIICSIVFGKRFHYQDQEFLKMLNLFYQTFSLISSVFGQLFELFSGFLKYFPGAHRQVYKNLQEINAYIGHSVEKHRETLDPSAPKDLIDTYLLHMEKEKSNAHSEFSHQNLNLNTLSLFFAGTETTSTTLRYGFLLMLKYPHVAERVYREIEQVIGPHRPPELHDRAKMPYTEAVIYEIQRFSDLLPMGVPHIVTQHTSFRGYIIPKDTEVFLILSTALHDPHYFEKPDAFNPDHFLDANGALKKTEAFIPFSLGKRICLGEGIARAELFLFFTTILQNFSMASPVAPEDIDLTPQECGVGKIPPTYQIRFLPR
# [9] = pH 7.4, Regioselectivity BzH:Arom
# [10] = pH 7.4, Regioselectivity BzH:ODAlk
SMILES,Experimental Ratio [1],"selectivity ratio [2, 9]","selectivity ratio [2, 10]","selectivity ratio [3, 9]","selectivity ratio [3, 10]",Intermolecular KIE ([4]; CYP2C9 (Table 15)),Intramolecular KIE ([4]; CYP2C9 (Table 15)),"δΔG^† ([4]; CYP2C9, benzylic oxidation vs O-dealkylation)",Intramolecular KIE (kH/kD) [5],Intermolecular KIE ([6]; CYP1A1 (Table 15)),Intramolecular KIE ([6]; CYP1A1 (Table 15)),"δΔG^† ([6]; CYP1A1, benzylic oxidation vs O-dealkylation)",Intermolecular KIE ([7]; CYP1A2 (Table 15)),Intramolecular KIE ([7]; CYP1A2 (Table 15)),"δΔG^† ([7]; CYP1A2, benzylic oxidation vs O-dealkylation)",Intermolecular KIE ([8]; CYP2B6 (Table 15)),Intramolecular KIE ([8]; CYP2B6 (Table 15)),"δΔG^† ([8]; CYP2B6, benzylic oxidation vs O-dealkylation)"
"COc1ccccc1C [o-Methylanisole, o-methylanisole]",1.76,1.6,2.5,0.63,2.9,,,,,,,,,,,,,
"COc1ccc(C)cc1 [p-Methylanisole, p-methylanisole]",,,,,,3.52,3.92,1.87 kcal/mol,4.44,2.17,4.23,1.12 kcal/mol,5.94,3.79,1.82 kcal/mol,7.60,4.58,0.86 kcal/mol
